Experiment [1] deals with A549 (Human lung adenocarcinoma epithelial cell line). The experiment is described as follows: MTT cell proliferation assay in A549 cell line. The format is cell-based. The note with it: A549 cells, treated 72 hr or 96 hr. The protocol:
(§1) Exemplary assays include MTT cell proliferation assay in A549 (Human lung adenocarcinoma epithelial cell line), and HL60 (Human promyelocytic leukemia cells) cell lines. Suitable cells include those derived through cell culture from patient samples (cancer cell lines) as well as cells derived using routine molecular biology techniques, e.g., retroviral transduction, transfection, mutagenesis, etc.
(§2) In an exemplary MTT assay, approximately 1,000 cells (A549 or HL60) are plated into each well of a 96-well plate. Cells are treated in duplicate with test compounds in a dose titration manner, typically 3-fold dilutions, eleven points per assay, with starting concentrations of 20 or 10 μM) or with DMSO-control (0.2% final concentration). Cells are treated for 72 hours (hr) or 96 hr before being analyzed by the MTT method. After 72 hr or 96 hr of compound treatment, 10 μL of MTT dye solution (5 mg/mL MTT dye [Sigma #M2128] in water) is added to each well and incubated at 37° C. for 2 hr. Following incubation, 100 μL of lysis buffer (10% SDS, 0.01 N HCl in water) is added to each well and incubated overnight at 37° C. The plate is analyzed the following day using a colorimetric plate reader at 595 nm wavelength. Values obtained for treatment samples are normalized to control samples.
In general terms: Formazan colour is commonly taken as a measure of viable cells.

Experiment [2] relates to HL60 (Human promyelocytic leukemia cells). The experiment can be described thus: MTT cell proliferation assay in HL60 cell line. The note with it: HL-60, treated 72 hr or 96 hr. It is filed as cell-based. The procedure:
as §1, §2

For orientation: IC50 means the concentration that inhibits the measured activity by half. Higher therefore signals lower potency.

Consider `CN[C@H]1CN(c2ccc3c(=O)c(S(=O)(=O)N4CCCCC4)cn(-c4nccs4)c3n2)C[C@@H]1OC`, for which the IC50 in experiment [1] and in experiment [2] was < 3 µM in each case.
For the compound `O=c1c(S(=O)(=O)N2CCCCC2)cn(-c2nccs2)c2nc(N3CCN(c4cccnc4)CC3)ccc12`, the figures for the IC50 in experiment [1] and in experiment [2] were < 3 µM and 3 to 10 µM, respectively.
In the same order, the values of `O=c1c(S(=O)(=O)N2CCCCC2)cn(-c2nccs2)c2nc(N3CCN(C4CCCCC4)CC3)ccc12` are < 3 µM and < 3 µM.
For `O=c1c(S(=O)(=O)N2CCCCC2)cn(-c2nccs2)c2nc(N3CCN(c4ccc(C(F)(F)F)cc4)CC3)ccc12`, the IC50 in experiment [1] is < 3 µM.
On to `C[C@@H]1CN(c2ccc3c(=O)c(S(=O)(=O)N4CCCCC4)cn(-c4nccs4)c3n2)CCN1`, for which the IC50 in experiment [1] and in experiment [2] was < 3 µM in each case.
With `C[C@@H]1CN(c2ccc3c(=O)c(S(=O)(=O)N4CCCCC4)cn(-c4nccs4)c3n2)C[C@H](C)N1`, the IC50 in experiment [1] and in experiment [2] was < 3 µM each time.
As for `CN(C)[C@@H]1CCN(c2ccc3c(=O)c(S(=O)(=O)N4CCCCC4)cn(-c4nccs4)c3n2)C1`, the IC50 in experiment [1] and in experiment [2] was < 3 µM in each case.
Consider `O=c1c(S(=O)(=O)N2CCCCC2)cn(-c2nccs2)c2nc(N3CCC(N4CCCC4)CC3)ccc12`, for which the IC50 in experiment [1] and in experiment [2] was < 3 µM throughout.
Take `COC[C@@H]1CCCN1c1ccc2c(=O)c(S(=O)(=O)N3CCCCC3)cn(-c3nccs3)c2n1`: the figures for the IC50 in experiment [1] and in experiment [2] were 3 to 10 µM and > 10 µM, respectively.
Take `COC[C@H]1CCCN1c1ccc2c(=O)c(S(=O)(=O)N3CCCCC3)cn(-c3nccs3)c2n1`: the IC50 was 3 to 10 µM in experiment [1] and > 10 µM in experiment [2].
As for `N[C@@H]1CCN(c2ccc3c(=O)c(S(=O)(=O)N4CCCCC4)cn(-c4nccs4)c3n2)C1`, the IC50 in experiment [1] and in experiment [2] was < 3 µM each time.
With `O=c1c(S(=O)(=O)N2CCCCC2)cn(-c2nccs2)c2nc(N3CCC(O)C3)ccc12` (centres unmarked), the half-maximal inhibitory concentration (IC50) in experiment [1] is < 3 µM; in experiment [2], > 10 µM.
For `CCN(CC)C1CCN(c2ccc3c(=O)c(S(=O)(=O)N4CCCCC4)cn(-c4nccs4)c3n2)C1` (centres unmarked), the 50% inhibitory concentration (IC50) in experiment [1] and in experiment [2] was < 3 µM in each case.
`O=c1c(S(=O)(=O)N2CCCCC2)cn(-c2nccs2)c2nc(N3CCOCC3)ccc12`: the values for the concentration for half-maximal inhibition (IC50) in experiment [1] and in experiment [2] were 3 to 10 µM and > 10 µM, respectively.
For `CN1CCN(c2ccc3c(=O)c(S(=O)(=O)N4CCCCC4)cn(-c4nccs4)c3n2)CC1`, the IC50 is < 3 µM in experiment [1] and > 10 µM in experiment [2].
Consider `O=c1c(S(=O)(=O)N2CCCCC2)cn(-c2nccs2)c2nc(N3CCNCC3)ccc12`, for which the half-inhibitory concentration (IC50) in experiment [1] and in experiment [2] was < 3 µM throughout.
With `O=c1c(S(=O)(=O)N2CCCCC2)cn(-c2nccs2)c2nc(N3CCCC3)ccc12`, the IC50 in experiment [1] is < 3 µM; in experiment [2], > 10 µM.
In the case of `CN[C@H]1CN(c2ccc3c(=O)c(S(=O)(=O)N(C)C)cn(-c4nccs4)c3n2)C[C@@H]1OC`, the IC50 in experiment [1] and in experiment [2] was < 3 µM throughout.
Take `CN(C)S(=O)(=O)c1cn(-c2nccs2)c2nc(N3CCN(c4ccccn4)CC3)ccc2c1=O`: the IC50 in experiment [1] and in experiment [2] was > 10 µM in each case.
In the case of `CN(C)S(=O)(=O)c1cn(-c2nccs2)c2nc(N3CCN(C4CCCCC4)CC3)ccc2c1=O`, the IC50 is < 3 µM in experiment [1] and 3 to 10 µM in experiment [2].
Turning to `C[C@@H]1CN(c2ccc3c(=O)c(S(=O)(=O)N(C)C)cn(-c4nccs4)c3n2)CCN1`, the IC50 in experiment [1] is 3 to 10 µM; in experiment [2] it was > 10 µM.
As for `C[C@@H]1CN(c2ccc3c(=O)c(S(=O)(=O)N(C)C)cn(-c4nccs4)c3n2)C[C@H](C)N1`, the concentration for half-maximal inhibition (IC50) in experiment [1] and in experiment [2] was 3 to 10 µM throughout.
For the compound `CN(C)[C@@H]1CCN(c2ccc3c(=O)c(S(=O)(=O)N(C)C)cn(-c4nccs4)c3n2)C1`, the 50% inhibitory concentration (IC50) is < 3 µM in experiment [1] and 3 to 10 µM in experiment [2].
With `CN(C)S(=O)(=O)c1cn(-c2nccs2)c2nc(N3CCC(N4CCCC4)CC3)ccc2c1=O`, the 50% inhibitory concentration (IC50) in experiment [1] and in experiment [2] was 3 to 10 µM in each case.
Take `COC[C@@H]1CCCN1c1ccc2c(=O)c(S(=O)(=O)N(C)C)cn(-c3nccs3)c2n1`: the IC50 in experiment [1] and in experiment [2] was > 10 µM in each case.
Take `CN(C)S(=O)(=O)c1cn(-c2nccs2)c2nc(N3CC[C@@H](N)C3)ccc2c1=O`: the concentration for half-maximal inhibition (IC50) in experiment [1] and in experiment [2] was < 3 µM in each case.
As for `CN(C)S(=O)(=O)c1cn(-c2nccs2)c2nc(N3CCOCC3)ccc2c1=O`, the IC50 in experiment [1] and in experiment [2] was > 10 µM throughout.
`CN(C)S(=O)(=O)c1cn(-c2nccs2)c2nc(N3CCNCC3)ccc2c1=O`: the IC50 in experiment [1] and in experiment [2] was 3 to 10 µM throughout.
For the compound `CN(C)S(=O)(=O)c1cn(-c2nccs2)c2nc(N3CCCC3)ccc2c1=O`, the IC50 is < 3 µM in experiment [1] and > 10 µM in experiment [2].
In the same order, the values of `CN[C@H]1CN(c2cnc3c(=O)c(C(=O)O)cn(-c4nccs4)c3n2)C[C@@H]1OC` are > 10 µM and > 10 µM.
Taken in the same sequence, the figures for `CN(C)[C@@H]1CCN(c2cnc3c(=O)c(C(=O)O)cn(-c4nccs4)c3n2)C1` were > 10 µM and > 10 µM.
In the case of `N[C@@H]1CCN(c2cnc3c(=O)c(C(=O)O)cn(-c4nccs4)c3n2)C1`, the IC50 in experiment [1] and in experiment [2] was > 10 µM throughout.
`COC1CCN(c2cnc3c(=O)c(C(=O)O)cn(-c4nccs4)c3n2)C1` (centres unmarked): the half-inhibitory concentration (IC50) in experiment [1] and in experiment [2] was > 10 µM in each case.
Take `O=C(O)c1cn(-c2nccs2)c2nc(N3CCC(O)C3)cnc2c1=O` (centres unmarked): the IC50 in experiment [1] and in experiment [2] was > 10 µM each time.
Consider `CCN(CC)C1CCN(c2cnc3c(=O)c(C(=O)O)cn(-c4nccs4)c3n2)C1` (centres unmarked), for which the IC50 in experiment [1] and in experiment [2] was > 10 µM each time.
Turning to `O=C(O)c1cn(-c2nccs2)c2nc(N3CCCC3)cnc2c1=O`, the IC50 in experiment [1] and in experiment [2] was 3 to 10 µM throughout.
As for `CC1CCCN1c1cnc2c(=O)c(C(=O)O)cn(-c3nccs3)c2n1` (centres unmarked), the IC50 in experiment [1] is 3 to 10 µM; in experiment [2], > 10 µM.
For `COC[C@H]1CCCN1c1cnc2c(=O)c(C(=O)O)cn(-c3nccs3)c2n1`, the IC50 in experiment [1] and in experiment [2] was > 10 µM throughout.
With `COC[C@@H]1CCCN1c1cnc2c(=O)c(C(=O)O)cn(-c3nccs3)c2n1`, the IC50 in experiment [1] and in experiment [2] was > 10 µM each time.
`CN1CCN(c2cnc3c(=O)c(C(=O)O)cn(-c4nccs4)c3n2)CC1`: the IC50 in experiment [1] and in experiment [2] was > 10 µM throughout.
Turning to `CCN1CCN(c2cnc3c(=O)c(C(=O)O)cn(-c4nccs4)c3n2)CC1`, the half-inhibitory concentration (IC50) in experiment [1] and in experiment [2] was > 10 µM in each case.
As to `O=C(O)c1cn(-c2nccs2)c2nc(N3CCN(C4CCCCC4)CC3)cnc2c1=O`, the 50% inhibitory concentration (IC50) in experiment [1] and in experiment [2] was > 10 µM throughout.
For `O=C(O)c1cn(-c2nccs2)c2nc(N3CCNCC3)cnc2c1=O`, the IC50 in experiment [1] and in experiment [2] was > 10 µM throughout.
Turning to `C[C@@H]1CN(c2cnc3c(=O)c(C(=O)O)cn(-c4nccs4)c3n2)C[C@H](C)N1`, the IC50 in experiment [1] and in experiment [2] was > 10 µM each time.
As to `C[C@@H]1CN(c2cnc3c(=O)c(C(=O)O)cn(-c4nccs4)c3n2)CCN1`, the half-maximal inhibitory concentration (IC50) in experiment [1] and in experiment [2] was > 10 µM throughout.
Take `O=C(O)c1cn(-c2nccs2)c2nc(N3CCOCC3)cnc2c1=O`: the IC50 in experiment [1] and in experiment [2] was > 10 µM each time.
As to `O=C(O)c1cn(-c2nccs2)c2nc(N3CCN(c4ccccn4)CC3)cnc2c1=O`, the concentration for half-maximal inhibition (IC50) in experiment [1] and in experiment [2] was > 10 µM in each case.
`CC(C)(C)OC(=O)N1CCN(c2cnc3c(=O)c(C(=O)O)cn(-c4nccs4)c3n2)CC1`: the IC50 in experiment [1] and in experiment [2] was > 10 µM each time.

The record behind these values is US8470817B2, “Compounds and methods for treatment of cancer” (Sunesis Pharmaceuticals, Inc., priority 2009, dated 2013).
